Activity calls are given as the source filed them. How the calls were made is not given here.
What follows are compounds tested against Complement C1s subcomponent (Homo sapiens) (UniProt P09871) (assay: C1s inhibitor IC50 values, dose response, biochemical (AID 787)). Conditions: purified C1s enzyme, fluorogenic substrate, FU read-out.
Complement C1s subcomponent (Homo sapiens), sequence (P09871 16-437 limits assumed): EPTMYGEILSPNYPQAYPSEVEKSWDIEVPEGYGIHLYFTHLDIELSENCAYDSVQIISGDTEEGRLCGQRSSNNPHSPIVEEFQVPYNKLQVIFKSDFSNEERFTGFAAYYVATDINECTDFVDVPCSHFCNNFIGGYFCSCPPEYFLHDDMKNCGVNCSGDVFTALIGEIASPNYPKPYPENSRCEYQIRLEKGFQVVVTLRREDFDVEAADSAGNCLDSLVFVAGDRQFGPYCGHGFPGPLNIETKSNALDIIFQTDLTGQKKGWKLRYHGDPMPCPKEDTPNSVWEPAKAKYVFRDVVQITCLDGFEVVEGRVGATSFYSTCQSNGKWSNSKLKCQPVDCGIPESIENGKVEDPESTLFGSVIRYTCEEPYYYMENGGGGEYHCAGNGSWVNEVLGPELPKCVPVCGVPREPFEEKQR
Complement C1s subcomponent (Homo sapiens), sequence (P09871 438-688 limits assumed): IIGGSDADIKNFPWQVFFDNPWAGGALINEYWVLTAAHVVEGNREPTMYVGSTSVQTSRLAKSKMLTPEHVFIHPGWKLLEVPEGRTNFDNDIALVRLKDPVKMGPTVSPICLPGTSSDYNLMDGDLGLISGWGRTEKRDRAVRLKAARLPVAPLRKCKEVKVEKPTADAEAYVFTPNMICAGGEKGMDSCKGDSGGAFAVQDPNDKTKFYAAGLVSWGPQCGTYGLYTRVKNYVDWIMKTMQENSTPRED

| Compound | IC50 |
| --- | --- |
| CCOC(=O)N1CC=C2C(C#N)=C(N)C(C#N)(C#N)[C@H](c3ccccc3OCC)[C@H]2C1 | > 50 µM (inactive) |
| COc1ccc(NC(=O)CSC2=C(C#N)C(c3ccco3)C3=C(CCCC3=O)N2)c(OC)c1 (centres undefined) | > 50 µM (inactive) |
| O=C(Oc1ccc(Cl)cc1N1C(=O)CCC1=O)c1ccco1 | > 50 µM (inactive) |
| COC(=O)Cc1[nH]nc2c1C1(C(=O)N(Cc3ccccc3)c3ccccc31)C(C#N)=C(N)O2 (centres undefined) | > 50 µM (inactive) |
| O=C1CCCC2=C1C1(CCCCC1)N=C(Nc1nc3ccccc3o1)N2 | > 50 µM (inactive) |
| CCOc1ccc(N2C(=O)CC(N3CCN(c4ccccc4F)CC3)C2=O)cc1 (centres undefined) | > 50 µM (inactive) |
| O=C1CCCC(O)=C1C=NCCc1ccccc1 | > 50 µM (inactive) |
| Cc1cccc(COc2ccc(/C(O)=C3\C(=O)C(=O)N(CCN(C)C)C3c3ccncc3)cc2)c1 (centres undefined) | > 50 µM (inactive) |
| COc1cccc(C2=CC(c3cccc(OC)c3OC)n3nnnc3N2)c1 (centres undefined) | > 50 µM (inactive) |
